Reference: publication PMC10185535, “Structural insights into cardiolipin replacement by phosphatidylglycerol in a cardiolipin-lacking yeast respiratory supercomplex” (Nature Communications, 2023)
Blank lines part the entries; values can stand above or below the molecule they belong to.

Columns and labels:
[1] = system: T1, CRD1∆ SC (III2IV1 trimeric respiratory supercomplex); experiment: cryo-EM structure […] Å; assay type: binding, Saccharomyces cerevisiae; settings: Qi sites of complex III only (Cob); endogenous
T1 construct: gene COB; native trimer (complex III dimer plus one complex IV) from cardiolipin-lacking strain, Cox4 with C-terminal His10, subunit Qcr10 lost; digitonin, His-Trap and SEC; with Cytochrome b-c1 complex subunit 1, mitochondrial; Cytochrome b-c1 complex subunit 2, mitochondrial; Cytochrome b-c1 complex subunit 6, mitochondrial; Cytochrome b-c1 complex subunit 7, mitochondrial; Cytochrome b-c1 complex subunit 9, mitochondrial; Cytochrome c oxidase subunit 2; Cytochrome c oxidase subunit 3; Cytochrome c oxidase subunit 4, mitochondrial; Cytochrome c oxidase subunit 6, mitochondrial; Cytochrome c oxidase subunit 7, mitochondrial; Cytochrome c oxidase subunit 8, mitochondrial; Cytochrome c oxidase subunit 9, mitochondrial; Cytochrome c oxidase subunit 12, mitochondrial; Cytochrome c oxidase subunit 13, mitochondrial; Cytochrome c oxidase subunit 26, mitochondrial

[2] = system: T2, WT SC (IV1III2IV1; III2IV2 tetrameric respiratory supercomplex); experiment: cryo-EM structure […] Å; assay type: binding, Saccharomyces cerevisiae; settings: Qi and Qo sites of complex III; Cob, Rip1 His181 (Qo); copurified endogenous
T2 construct: gene COB; native tetramer (complex III dimer flanked by two complex IV), digitonin extract of mitochondria, FoF1-ATPase removed, sucrose gradient; no tag on the supercomplex; with Cytochrome b-c1 complex subunit 2, mitochondrial; Cytochrome b-c1 complex subunit 6, mitochondrial; Cytochrome b-c1 complex subunit 9, mitochondrial; Cytochrome b-c1 complex subunit 10, mitochondrial; Cytochrome c oxidase subunit 2; Cytochrome c oxidase subunit 3; Cytochrome c oxidase subunit 4, mitochondrial; Cytochrome c oxidase subunit 5A, mitochondrial; Cytochrome c oxidase subunit 6, mitochondrial; Cytochrome c oxidase subunit 7, mitochondrial; Cytochrome c oxidase subunit 8, mitochondrial; Cytochrome c oxidase subunit 9, mitochondrial; Cytochrome c oxidase subunit 12, mitochondrial; Cytochrome c oxidase subunit 13, mitochondrial; Cytochrome c oxidase subunit 26, mitochondrial

[3] = system: T1, CRD1∆ SC (III2IV1 trimeric respiratory supercomplex); experiment: oxygen consumption, Oroboros respirometry; assay type: biochemical, Saccharomyces cerevisiae; settings: 100 μM DQH2, 50 μM cytochrome c, 0.05% digitonin, pH 7.1, 30 °C
[4] = system: T2, WT SC (IV1III2IV1; III2IV2 tetrameric respiratory supercomplex); experiment: oxygen consumption, Oroboros respirometry; assay type: biochemical, Saccharomyces cerevisiae; settings: 100 μM DQH2, 50 μM cytochrome c, 0.05% digitonin, pH 7.1, 30 °C
[5] = molecular target: complex III2 (CIII) of the trimeric supercomplex (III2IV1) from the cardiolipin-lacking CRD1∆ S. cerevisiae mutant (S. cerevisiae (endogenous in strain YEB100)) (UniProt P07256); experiment: cryo-EM structure; trimeric SC (III2IV1) from the CRD1∆ strain, purified by His-Trap (Cox4-His10) and Superose 6 in 0.05% digitonin; Titan Krios, with added 30° tilt data; 3.3 Å
[6] = molecular target: complex III2 (CIII, dimer of cytochrome bc1) of the wild type S. cerevisiae respiratory supercomplex (S. cerevisiae (endogenous in strain USY00b)) (UniProt P07256); experiment: cryo-EM structure; WT tetrameric SC (IV1III2IV1) purified by sucrose gradient in digitonin, diluted 1:9 in 15 mM Tris-HCl pH 7.2, 20 mM KCl; Titan Krios 300 kV; 3.2 Å
[7] = molecular target: T3, Cor1, subunit of CIII (S. cerevisiae (endogenous in strain …, UniProt P07256 27-457)); experiment: as above; settings: both partners purified
T3 construct: Cor1, subunit of complex III, S. cerevisiae; source: endogenous, mitochondria of S. cerevisiae strain USY00b; within the purified III2IV2 SC (sucrose gradient)
T3 sequence (looked up): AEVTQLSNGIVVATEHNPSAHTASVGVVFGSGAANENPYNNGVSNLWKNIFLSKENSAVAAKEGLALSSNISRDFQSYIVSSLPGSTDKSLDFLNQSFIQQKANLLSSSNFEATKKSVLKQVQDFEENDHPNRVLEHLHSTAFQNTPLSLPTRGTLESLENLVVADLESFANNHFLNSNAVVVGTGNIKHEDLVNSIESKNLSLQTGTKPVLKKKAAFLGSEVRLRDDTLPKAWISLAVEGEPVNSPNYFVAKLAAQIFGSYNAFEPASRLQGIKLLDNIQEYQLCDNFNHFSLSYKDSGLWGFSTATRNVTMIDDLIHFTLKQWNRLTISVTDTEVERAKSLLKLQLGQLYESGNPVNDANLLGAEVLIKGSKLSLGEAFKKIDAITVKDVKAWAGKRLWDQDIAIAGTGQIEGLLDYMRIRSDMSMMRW

Molecule: COC1=C(OC)C(=O)C(C/C=C(\C)CC/C=C(\C)CC/C=C(\C)CC/C=C(\C)CC/C=C(\C)CCC=C(C)C)=C(C)C1=O [UQ6]
cryo-EM structure 3.3 Å [1]: Densities for UQ6 were found only at Qi sites
cryo-EM structure 3.2 Å [2]: four UQ6 ligands were placed into the map, two in each monomer of CIII

Molecule: CCCCCCCCCCc1c(C)c(O)c(OC)c(OC)c1O [reduced decylubiquinone]
oxygen consumption, Oroboros respirometry [3]: Due to limited amounts of the ∆CRD1 SC, only one determination was possible
oxygen consumption, Oroboros respirometry [4]: purified WT SC supplemented with Cyt c and reduced decylubiquinone (DQH2) also displayed similar activity

B1: Cox5a, subunit of CIV (natural protein, UniProt P00424 21-153, looked up)
chain: AQTHALSNAAVMDLQSRWENMPSTEQQDIVSKLSERQKLPWAQLTEPEKQAVWYISYGEWGPRRPVLNKGDSSFIAKGVAAGLLFSVGLFAVVRMAGGQDAKTMNKEWQLKSDEYLKSKNANPWGGYSQVQSK
notes: Cox5a, subunit of complex IV, S. cerevisiae; source: endogenous, mitochondria of S. cerevisiae strain USY00b; within the purified III2IV2 SC (sucrose gradient)
binding result [7]: binds

Now from value to molecule:

stoichiometry N [5]: 2
Molecule: complex III2 (CIII) of the trimeric supercomplex (III2IV1) from the cardiolipin-lacking CRD1∆ S. cerevisiae mutant (from UniProt P07256 27-457; P00163 1-385; P07143 62-309; P08067 31-215; P00128 1-127; P08525 1-94; P22289 1-66)

stoichiometry N [6]: 2
Molecule: complex III2 (CIII, dimer of cytochrome bc1) of the wild type S. cerevisiae respiratory supercomplex (from UniProt P07256 27-457; P00163 1-385; P07143 62-309; P08067 31-215; P00128 1-127; P08525 1-94; P22289 1-66; P37299 1-77)
